Key:
[1] = tested on: IL-1 and IFN-γ insufflated rats; test: Differential and total inflammatory cell counts in BALF after cytokine insufflation; type: in vivo, rat; details: for accumulation of inflammatory cells (BALF cell numbers): diet before IL-1 and IFN-γ insufflation, 24 hours later, allopurinol 50 mg/Kg for seven days (FIG. 4c); for macrophages in BALF (differential analysis) / neutrophils in BALF (differential analysis): 24 hours following insufflation
Excerpt: (§1) Intratracheal cytokine insufflation.

alveolar cells = test: TUNEL staining and morphometric analysis; type: in vivo, rat; details: prior feeding with diet, IL-1 and IFN-γ insufflation 24 h before (FIG. 4f,g)
Method: TUNEL staining and morphometric analysis. The TUNEL assay was used to detect apoptotic cells in fixed lung sections. After fixation with 4% buffered formalin, lung tissue sections were embedded in paraffin, sectioned at […], and mounted on glass slides. Slides were de-paraffinized, rehydrated for 10 min in PBS, and treated with 0.002% proteinase K (Sigma) in distilled water for 5 to 15 min at room temperature. Terminal deoxynucleotidyl transferase (TdT) was used for labeling of DNA nicks using the TACS kit (Trevigen, Inc., Gaithersburg, Md.). Counterstaining with DAPI was done to stain nuclear DNA and with Rhodamine coupled wheat germ agglutinin (WGA, Molecular Probes, Eugene, Oreg.) to stain the structural architecture. TUNEL positive cell staining appeared as green fluorescence in the nuclei of clearly defined alveolar cells. Background nuclear staining appeared as blue while the tissue architecture was red.

caspase-3 = test: Activated caspase-3 detection in lung sections; type: in vivo, rat; details: prior feeding with diet, IL-1 and IFN-γ insufflation 24 hours before (FIG. 4h)
Method: Activated caspase-3 detection. Detection of the cleaved, mature, activated caspase-3 was performed on paraffin-embedded sections using the Cell Signaling Technology, Inc (Beverly, Mass.) protocol. First, paraffin-embedded slides were deparaffinized and rehydrated. Incubation with 1% H2O2 for 10 min blocked endogenous peroxidase activity. For antigen unmasking, the tissue sections were microwaved in 10 mM sodium citrate buffer (pH 6.0) for 10 min. Next, the sections were blocked in 5% goat serum for 1 hr at room temperature. Slides were then incubated at 4° C. overnight with caspase-3 antibody specific for the cleaved, mature, form of caspase-3 diluted 1:200 in phosphate buffered saline (Asp-175; Cell Signaling Technology, Inc). This was followed by a 30 min incubation with a 1:200 dilution of goat anti-rabbit antibody (PK-6101; Vector Laboratories, Burlingame, Calif.). A subsequent 30 min incubation with VectaStain Elite ABC reagent (PK-6101; Vector Laboratories) ensued. This reaction was followed by the addition of the DAB substrate kit for peroxidase (SK-4100; Vector Labs). The slides were finally counterstained with hematoxylin (H-3401; Vector Labs), dehydrated and mounted. Caspase-3 positive cells were quantitated by counting the percent positive alveolar cells per field under 100× magnification.

MNP XOR = biological target: T1, MNP XOR (Rattus norvegicus, UniProt P22985); test: Cell transfer experiment: BALF cells treated in vitro and insufflated into control rats; type: in vivo; details: BALF cells exposed 15 min to 150 μM allopurinol in vitro, 2×10^6 cells insufflated into control rats, BALF 24 hours later, p<0.05 vs control cells (FIG. 5c)
T1 construct: endogenous in cells; host or cells: BALF cells / adherent mononuclear phagocytes from IL-1 and IFN-gamma insufflated Sprague-Dawley rats
Method: A lung inflammatory response was induced in rats with IL-1 and IFN-γ insufflation. After 8 hours, cells from BALF were recovered from each rat in PBS, pooled, and quantitated. Cells were then divided into two equivalent fractions and exposed to 1 mM KOH or 1 mM KOH with 150 μM allopurinol in vitro. The neutral pH of the PBS and cell mixture was unchanged by adding 1 mM KOH. After 15 min, the cells were washed and resuspended in PBS. Subsequently, 2×10^6 of control or allopurinol treated cells were insufflated into control rats. 24 hours after cell insufflation, BALF cells were recovered from these rats, Wright's stained and quantitated. […] Data are the mean and standard error of 6 rats in each group.
To determine whether XOR induction in MNP could contribute to lung inflammation, we performed a cell transfer experiment. We induced a pulmonary inflammatory response in rats with IL-1 and IFN-γ insufflation, obtained these cells by bronchoalveolar lavage 8 hours later, and then treated these cells with either allopurinol or the vehicle for allopurinol in vitro. After a 15 min exposure to allopurinol or the vehicle, the cells were washed, resuspended in PBS, and then insufflated into control rats. Subsequently, cells were harvested from the BALF of these control rats, stained, and quantitated.

Id-2 = test: Western immunoblot of Id-2 from BALF cells; type: in vivo, rat; details: 24 hours following cytokine insufflation, allopurinol vs control fed rats
Method: Western immunoblot analysis of the differential inhibitor, Id-2, from BALF cells obtained 24 hours following cytokine insufflation in allopurinol (A) or control (C) fed rats.

[2] = tested on: patients with chronic heart failure (CHF), cardiomyopathy, or undergoing heart surgery; details: cited from earlier work
[3] = tested on: vascular endothelial function; details: Type 1 and Type 2 diabetes in humans; cited from earlier work
superoxide generation = details: streptozotocin induced diabetes in mice; cited from earlier work
pancreatic fibrosis = details: rats treated with diethyldithiocarbamate; cited from earlier work
[4] = tested on: pancreatitis and vascular injury; details: L-arginine induced pancreatic inflammation in rats; cited from earlier work
[5] = tested on: colonic leukocyte-chemokine expression and leukocyte accumulation; details: mice; cited from earlier work
[6] = tested on: leukocyte-chemokine expression and leukocyte accumulation; details: endotoxemic model of liver injury; cited from earlier work
[7] = tested on: acute gastric mucosal lesions; details: rats; cited from earlier work
[8] = tested on: PMN accumulation in the eye; details: uveitis, even after the onset of disease; cited from earlier work
XOR [9] = biological target: T2, XOR (Homo sapiens, UniProt P47989); details: COPD; cited from earlier work
T2 construct: host or cells: bronchoalveolar lavage fluid of COPD patients

sarcoidosis = details: cited from earlier work
[10] = tested on: endothelial injury in the lungs (and gut); details: heavy smokers and rats subjected to heavy smoking conditions; cited from earlier work
vascular injury = details: mice, hemorrhagic shock or LPS injection, prior inhibition of XOR; cited from earlier work
NADPH oxidase = details: even at relatively high doses; cited from earlier work
[11] = tested on: IL-1 and IFN-γ insufflated rats; test: Lung histology (H&E) after cytokine insufflation; details: diet before IL-1 and IFN-γ insufflation, 24 hours later (FIG. 4d)
XOR [12] = biological target: T3, XOR (Rattus norvegicus, UniProt P22985); test: Xanthine oxidoreductase assay, lung tissue extracts of cytokine insufflated rats; type: in vivo; details: for induction of total lung XOR activity: 24 hours following intratracheal cytokine insufflation (50 ng per rat) compared to saline alone (FIG. 1a); for lung O-form XOR content: lungs 24 h after insufflation, untreated 23%, saline 42% (FIG. 1d)
T3 construct: Total XOR activity in lung and liver tissue was determined using whole tissue protein extracts; from tissue; host or cells: lung (and liver) of Sprague-Dawley rats
Method: as §1
(§2) Xanthine oxidoreductase assay. Total XOR activity in lung and liver tissue was determined using whole tissue protein extracts. Briefly, tissues that had been perfused blood free were placed into liquid N2 and stored at −80° C. prior to generating enzyme extracts. Enzyme extracts were prepared by placing frozen specimens in extract buffer (100 mM K-Phosphate, pH 7.8, 1 mM EDTA, 1 mM PMSF). Tissues were thawed in extract buffer on ice and minced. Minced tissues were broken in a rotating dounce using exactly three strokes of the pestle. Tissue homogenates were then centrifuged at 15,000×g at 4° C. for 30 min. Clarified extracts were desalted on 2 cm×20 cm Sephadex G25 columns to remove low molecular weight substances that potentially interfere with enzyme activity (48), and 3 ml of the flow through front were collected. Allopurinol inhibitable XOR activity was determined spectroscopically by measuring uric acid formation from xanthine at 290 nm. The stability of uric acid added to the flow through fraction was determined in the presence and absence of the uricase inhibitor, oxonic acid (OA). […] Evaluation of D-form XOR and O-form XOR was determined by measuring enzymatic activity in the presence and absence of NAD+(49).

XOR [13] = biological target: T3, XOR; test: XOR activity in BALF cells / adherent MNP of cytokine insufflated rats; details: in vivo
Method: as §1
as §2, with “Clarified extracts were desalted on 2 cm×20 cm Sephadex G25 columns to remove low molecular weight substances that potentially interfere with enzyme activity (48), and 3 ml of the flow through front were collected.” left out
Neutrophils and MNP were recovered from the BALF 24 hours following IL-1 and IFN-γ insufflation and purified on Percoll gradients. […] Although XOR was induced over a 24 hour period in the infiltrating MNP recovered from the lungs of IL-1 and IFN-γ insufflated rats, neither XOR activity or antigen was detected in circulating rat monocytes (not shown). […]

XOR [14] = details: cited from earlier work
O-form XOR = biological target: T4, O-form XOR (Rattus norvegicus, UniProt P22985); test: DTT reduction of O-form XOR in soluble lung protein extracts; type: biochemical; details: 5 nM DTT at 37° C. for one hour, re-chromatographed on sephadex G25 (FIG. 1e)
T4 construct: Total XOR activity in lung and liver tissue was determined using whole tissue protein extracts; from tissue; host or cells: lung (and liver) of Sprague-Dawley rats
Method: FIGS. 1A-E. Lung XOR induction following cytokine insufflation. Total lung and liver XOR activity was quantitated in the presence of NAD^+ in soluble desalted protein extracts from rats that were insufflated 24h before with saline, IL-1, IFN-γ or IL-1 and IFN-γ. […] IL-1 and IFN-γ insufflated rats had increased (**, p<0.02) lung (A), but not (p>0.05) liver (B), XOR activity compared to rats insufflated with saline, IL-1 (*, p<0.05), or IFN-γp>0.05). (C) Western immunoblot analysis of lung XOR from cytokine insufflated rats. Antibody to rat β-actin was used to control for gel loading. Gels were scanned with a Perkin-Elmer phosphoimager for semi-quantitation. Data are shown for two rats in each group. […] (D) The percentage of O-form XOR was quantitated in soluble protein extracts of cytokine insufflated rat lungs. […] Rats insufflated with IL-1 and IFN-γ had increased (*, p<0.05) lung O-form XOR activity compared to rats insufflated with saline, IL-1 or IFN-γ. […]
We quantitated the levels of O-form XOR in untreated or cytokine insufflated rat lungs. […] Soluble lung protein extracts from insufflated rats were exposed to 5 nM DTT at 37° C. for one hour and were re-chromatographed on sephadex G25 after which D-form and O-form content was re-measured. […]

T3 sequence (P22985 whole entry): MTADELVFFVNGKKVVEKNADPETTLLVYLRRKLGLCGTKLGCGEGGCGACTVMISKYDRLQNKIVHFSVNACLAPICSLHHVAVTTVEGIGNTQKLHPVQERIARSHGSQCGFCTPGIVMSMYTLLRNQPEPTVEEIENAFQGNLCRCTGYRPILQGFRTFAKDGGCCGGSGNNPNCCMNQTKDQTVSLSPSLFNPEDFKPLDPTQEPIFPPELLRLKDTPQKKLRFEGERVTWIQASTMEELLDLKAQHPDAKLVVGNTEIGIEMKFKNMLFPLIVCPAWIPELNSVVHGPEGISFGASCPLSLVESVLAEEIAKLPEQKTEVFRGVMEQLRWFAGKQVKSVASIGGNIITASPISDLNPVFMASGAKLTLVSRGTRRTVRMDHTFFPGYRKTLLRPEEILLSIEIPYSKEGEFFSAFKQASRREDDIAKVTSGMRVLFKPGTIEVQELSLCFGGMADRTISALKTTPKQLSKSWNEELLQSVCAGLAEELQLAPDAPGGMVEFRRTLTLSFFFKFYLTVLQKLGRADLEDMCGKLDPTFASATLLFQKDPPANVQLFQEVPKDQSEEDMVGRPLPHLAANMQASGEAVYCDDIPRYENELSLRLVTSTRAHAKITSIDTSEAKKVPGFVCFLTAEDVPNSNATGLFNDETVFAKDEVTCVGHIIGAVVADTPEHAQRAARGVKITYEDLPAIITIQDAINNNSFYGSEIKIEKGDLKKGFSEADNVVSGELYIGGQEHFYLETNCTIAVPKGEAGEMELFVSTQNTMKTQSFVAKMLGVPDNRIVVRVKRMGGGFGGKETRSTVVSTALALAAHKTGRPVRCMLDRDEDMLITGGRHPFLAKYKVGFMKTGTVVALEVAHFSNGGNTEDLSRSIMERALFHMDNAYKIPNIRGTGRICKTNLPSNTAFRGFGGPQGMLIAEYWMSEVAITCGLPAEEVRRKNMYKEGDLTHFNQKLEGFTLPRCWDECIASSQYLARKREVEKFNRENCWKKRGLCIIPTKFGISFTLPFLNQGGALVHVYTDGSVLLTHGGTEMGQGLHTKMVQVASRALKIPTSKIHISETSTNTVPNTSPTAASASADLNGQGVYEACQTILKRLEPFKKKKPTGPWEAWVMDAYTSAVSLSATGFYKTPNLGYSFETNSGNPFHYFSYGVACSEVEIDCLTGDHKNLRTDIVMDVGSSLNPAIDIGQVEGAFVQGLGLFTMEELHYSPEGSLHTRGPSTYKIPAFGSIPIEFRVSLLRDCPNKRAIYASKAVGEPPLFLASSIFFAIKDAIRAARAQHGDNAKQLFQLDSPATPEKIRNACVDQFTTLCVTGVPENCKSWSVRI
T4 sequence (P22985 whole entry): as above
T1 sequence (P22985 whole entry): as above
T2 sequence (P47989 whole entry): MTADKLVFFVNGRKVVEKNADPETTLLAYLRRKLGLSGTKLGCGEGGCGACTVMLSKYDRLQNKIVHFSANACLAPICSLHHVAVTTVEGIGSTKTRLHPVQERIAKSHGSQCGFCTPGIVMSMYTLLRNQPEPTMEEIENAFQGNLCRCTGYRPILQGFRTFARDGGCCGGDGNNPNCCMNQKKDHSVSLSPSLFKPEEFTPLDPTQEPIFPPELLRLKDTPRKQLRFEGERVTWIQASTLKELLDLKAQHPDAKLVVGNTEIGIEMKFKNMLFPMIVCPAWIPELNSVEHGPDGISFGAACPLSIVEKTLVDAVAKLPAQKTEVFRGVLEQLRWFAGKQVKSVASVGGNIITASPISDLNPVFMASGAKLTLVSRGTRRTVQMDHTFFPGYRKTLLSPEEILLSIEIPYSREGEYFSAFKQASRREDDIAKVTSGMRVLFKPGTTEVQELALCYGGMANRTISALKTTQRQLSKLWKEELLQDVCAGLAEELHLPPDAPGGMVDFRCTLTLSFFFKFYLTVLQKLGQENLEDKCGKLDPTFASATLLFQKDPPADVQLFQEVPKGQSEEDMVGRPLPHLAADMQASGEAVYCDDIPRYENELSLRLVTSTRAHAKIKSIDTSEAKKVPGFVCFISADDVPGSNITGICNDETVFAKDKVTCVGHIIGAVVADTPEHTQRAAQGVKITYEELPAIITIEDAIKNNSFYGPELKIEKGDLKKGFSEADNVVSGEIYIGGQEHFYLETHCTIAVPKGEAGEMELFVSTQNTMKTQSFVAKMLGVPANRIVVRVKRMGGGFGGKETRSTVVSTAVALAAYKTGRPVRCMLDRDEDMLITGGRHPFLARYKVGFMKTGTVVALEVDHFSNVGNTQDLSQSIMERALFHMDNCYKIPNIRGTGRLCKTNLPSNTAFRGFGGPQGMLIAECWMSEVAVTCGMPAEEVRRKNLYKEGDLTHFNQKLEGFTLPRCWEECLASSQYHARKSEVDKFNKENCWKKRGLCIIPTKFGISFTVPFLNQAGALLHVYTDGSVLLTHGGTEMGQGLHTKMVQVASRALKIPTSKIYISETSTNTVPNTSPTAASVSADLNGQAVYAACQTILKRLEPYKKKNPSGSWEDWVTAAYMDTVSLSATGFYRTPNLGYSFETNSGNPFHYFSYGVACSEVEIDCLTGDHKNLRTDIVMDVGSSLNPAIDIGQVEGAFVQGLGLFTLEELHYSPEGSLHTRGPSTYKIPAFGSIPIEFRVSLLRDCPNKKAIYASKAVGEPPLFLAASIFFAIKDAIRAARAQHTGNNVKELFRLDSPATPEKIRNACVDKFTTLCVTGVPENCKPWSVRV

Molecule: Oc1ncnc2[nH]ncc12 [allopurinol]
- accumulation of inflammatory cells (BALF cell numbers) [1]: reduced
- development of alveolar apoptosis (TUNEL positive alveolar nuclei) (alveolar cells): attenuated
- activation of caspase-3 in cytokine insufflated rat lungs (caspase-3): blocked
- recovery of neutrophils in the BALF after insufflation of treated BALF cells (MNP XOR): attenuated
- Id-2 from BALF cells (Western immunoblot) (Id-2): XOR dependent regulations of MNP Id-2 levels
- effect in patients with chronic heart failure, cardiomyopathy, or undergoing heart surgery [2]: cardio-protective effect
- vascular endothelial function [3]: protective
- superoxide generation (superoxide generation): normalized
- pancreatic fibrosis (pancreatic fibrosis): blocked
- evidence of pancreatitis and vascular injury [4]: blocked
- I/R induced colonic leukocyte-chemokine expression and leukocyte accumulation [5]: markedly reduced
- leukocyte-chemokine expression and leukocyte accumulation [6]: blocked
- markers of leukocyte infiltration in the gut [7]: decreased
- progression of experimentally induced acute gastric mucosal lesions [7]: blocked
- capacity to reduce PMN accumulation in the eye [8]: as effective as steroid treatment
- XOR and evidence of XOR derived oxidative stress (XOR [9]): reduced
- pulmonary sarcoidosis attributed to BCG vaccination (sarcoidosis; human): completely regressed
- sarcoidosis outcome (sarcoidosis; patients with sarcoidosis): induce remission
- endothelial injury in the lungs (and gut) [10]: reduce
- evidence of vascular injury (vascular injury): dramatically attenuated
- scavenging of ROS generated from the NADPH oxidase (NADPH oxidase): fails to scavenge
- histologic evidence of airway and perivascular inflammation [11]: attenuated

Molecule: [W] [tungsten]
- XOR activity in the lungs (XOR [12]; tungsten diet before IL-1 and IFN-γ insufflation, 24 hours later, vs control diet (FIG. 4a)): decreased
- XOR activity in the BALF cells (MNP XOR activity) (XOR [13]): decreased
- accumulation of inflammatory cells (BALF cell numbers) [1]: reduced
- development of alveolar apoptosis (TUNEL positive alveolar nuclei) (alveolar cells): attenuated
- activation of caspase-3 in cytokine insufflated rat lungs (caspase-3): blocked
- mononuclear cell infiltration and rejection signs (XOR [14]; day 9 post-transplantation): significantly ameliorated
- NADPH-oxidase activity (XOR [14]; renal allografts): without any effect
- XOR activity and ROS production (XOR [14]; renal allografts): pronounced reduction
- histologic evidence of airway and perivascular inflammation [11]: attenuated

Molecule: O[C@H](CS)[C@H](O)CS (racemic) [DTT, dithiothreitol]
- O-form XOR after DTT reduction (O-form XOR): approximately 23 % of the total XOR

B1: interferon-y (protein, UniProt P01581 23-156, looked up)
Interferon gamma: QGTLIESLESLKNYFNSSSMDAMEGKSLLLDIWRNWQKDGNTKILESQIISFYLRLFEVLKDNQAISNNISVIESHLITNFFSNSKAKKDAFMSIAKFEVNNPQIQHKAVNELIRVIHQLSPESSLRKRKRSRC
notes: recombinant rat cytokine insufflated intratracheally to induce lung inflammation
- induction of total lung XOR activity (XOR [12]): negligible response
- lung O-form XOR content (XOR [12]): 52 % of the total XOR activity
- macrophages in BALF (differential analysis) [1]: ~20%
- neutrophils in BALF (differential analysis) [1]: approximately 80%

B2: Recombinant rat interleukin-1-α (protein, UniProt P16598 115-270, looked up)
Interleukin-1 alpha: SAPHSFQNNLRYKLIRIVKQEFIMNDSLNQNIYVDMDRIHLKAASLNDLQLEVKFDMYAYSSGGDDSKYPVTLKVSNTQLFVSAQGEDKPVLLKEIPETPKLITGSETDLIFFWEKINSKNYFTSAAFPELLIATKEQSQVHLARGLPSMIDFQIS
notes: as for B1
- induction of total lung XOR activity (XOR [12]): approximate doubling
- lung O-form XOR content (XOR [12]): 57 % of the total XOR activity
- macrophages in BALF (differential analysis) [1]: ~20%
- neutrophils in BALF (differential analysis) [1]: approximately 80%

— US20070224287A1, “Methods of Modulating Inflammatory Reactions by Modulating Xanthine Oxidoreductase Activity” (priority 2003, published 2007)
